Laboratory results taken from the METLIN SMRT retention time set (Domingo-Almenara et al. 2019).

Experiment: gradient 5% acetonitrile 3 min, to 50% in 2 min, to 85% in 15 min, held 3 min, 100 µL/min
Details: column: Zorbax Extend-C18 2.1 x 50 mm; eluents: water / acetonitrile, 0.1% formic acid
Procedure, shortened: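 The system's dead and dwell volumes were 40 μL and 900 μL, with a Zorbax Extend-C18 column (2.1 × 50 mm, 1.8 μm) run at 100 μL/min in water and acetonitrile containing 0.1% formic acid each. Pure standards were analyzed in mixtures of ~100 molecules by HPLC–quadrupole time-of-flight mass spectrometry in positive and negative ionization mode. Retention time was assigned from computationally picked, manually inspected adduct peaks.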
`O=C(Cc1cccs1)N1CCCN(c2cc(-c3ccc4c(c3)OCO4)[nH]n2)CC1` gave an RP-LC retention time of 671 s. Compound `CCc1ccc(NS(=O)(=O)c2cc(-c3c(CC)noc3NC(C)=O)ccc2OC)cc1` has an RP-LC retention time of 802 s. For `CSc1nsc(NN)n1`, the RP-LC retention time was 647 s. In the case of `CCc1cc(C(=O)NCc2ccc(F)cc2)nc2ccnn12`, the RP-LC retention time is reported as 909 s. Work on `Cc1cc(C)n(-c2ccnc(N3CCC(C(=O)N4CCC5(CC4)OCCO5)CC3)n2)n1` yielded an RP-LC retention time of 712 s. In the case of `COc1ccc(S(=O)(=O)N2CCc3nc[nH]c3C2)cc1`, the RP-LC retention time is reported as 586 s. With `Cc1ccc(Cn2c(N3CCCC(C(=O)Nc4ccc(C)c(F)c4)C3)nc3ccsc3c2=O)cc1` (stereo not given) the RP-LC retention time was 1170 s. Work on `COCc1ncc(C)n1CC1CN(C(=O)c2cccn2C)C1` yielded an RP-LC retention time of 585 s. `O=C1COc2ccc(S(=O)(=O)N3CCC(C(=O)Nc4ccc(F)cc4F)CC3)cc2N1` gave an RP-LC retention time of 763 s. For `COC(=O)C1=CN(CC(=O)N2CCN(c3ccccc3F)CC2)S(=O)(=O)N=C1C`, the RP-LC retention time was 908 s. Work on `COCCC(=O)NCCC1CCN(C(=O)Nc2cc(F)ccc2F)CC1` yielded an RP-LC retention time of 675 s. With `Cc1ccc(NC(=O)N2CCC(c3cc(N)on3)CC2)c(Cl)c1` the RP-LC retention time was 736 s. For `Cc1cccc(-c2nc(Cn3nnc(-c4nc(-c5ccc(F)cc5)no4)c3C)c(C)o2)c1`, the RP-LC retention time was 1300 s. Compound `CCOc1ccccc1NC(=O)Cn1c(=O)n(-c2cccc(C)c2)c(=O)c2c1cc(C)n2C` has an RP-LC retention time of 943 s. Work on `COc1ccc(-c2nc(C3CC(=O)N(c4ccc(Cl)cc4)C3)no2)cc1OC` (stereo not given) yielded an RP-LC retention time of 944 s. With `COc1cccc(-n2c(=O)c(C(=O)NCCc3ccccc3)c(O)c3cccnc32)c1` the RP-LC retention time was 1200 s. Work on `Cc1ccccc1CNC(=O)CN1C(=O)CCCc2cc(S(=O)(=O)N3CCCCC3)ccc21` yielded an RP-LC retention time of 911 s. `COc1cccc(Cn2cc(S(=O)(=O)N3CCCC3)ccc2=O)c1` showed an RP-LC retention time of 779 s. With `O=C(NCCn1cccn1)c1nn(CCOc2ccccc2)c2c1CNCC2` the RP-LC retention time was 600 s. With `O=C(CSC1=Nc2ccccc2N=C(c2ccc(F)cc2)C1)NC1CCCC1` the RP-LC retention time was 1130 s. In the case of `CS(=O)(=O)N1CCC(C(=O)NC2CCCC(OC(=O)Nc3ccc(F)cc3)C2)CC1` (stereo not given), the RP-LC retention time is reported as 704 s. `Cc1ccc(N2CCC(NC(=O)Nc3cccc(Br)c3)C2=O)cc1` (stereo not given) gave an RP-LC retention time of 955 s. In the case of `Cc1cc(C)c(C(=O)N2CCCC(C(=O)NCc3ccccc3Cl)C2)[nH]1` (stereo not given), the RP-LC retention time is reported as 834 s. Compound `O=C(c1ccc2c(c1)nnn2CCN1CCOCC1)N1CCSCC1` has an RP-LC retention time of 564 s. In the case of `CCOc1ccccc1N1CCN(S(=O)(=O)c2nn(C)cc2C(=O)NC2CCCCC2)CC1`, the RP-LC retention time is reported as 1110 s. Compound `O=C(NCc1ccc(F)cc1)C1CCCN(c2nc3ccsc3c(=O)n2Cc2ccc(F)cc2)C1` (stereo not given) has an RP-LC retention time of 963 s. In the case of `Cc1ccc(-c2nc3n(CC(=O)N4CCCCC4C)c4c(c(=O)n3n2)CCC4)cc1` (stereo not given), the RP-LC retention time is reported as 1040 s. For `CC(=O)Nc1ccc(SCC(=O)c2ccc(Cl)cc2)nn1`, the RP-LC retention time was 756 s. `Cc1ccc(Cn2c(CN3CC(C)OC(C)C3)nc3c2c(=O)n(C)c(=O)n3C)cc1` (stereo not given) showed an RP-LC retention time of 700 s. Compound `O=C(O)C1CN(C(=O)COc2ccccc2F)C1` has an RP-LC retention time of 604 s. Compound `CCc1cc(-c2csc(S(=O)(=O)N3CC=C(c4ccccc4)CC3)c2)on1` has an RP-LC retention time of 1170 s. In the case of `COc1ccc(NC(=O)NCC(c2cccnc2)c2c[nH]c3ccccc23)c(OC)c1` (stereo not given), the RP-LC retention time is reported as 650 s. Compound `Cc1ccc2c(c1)sc1nncn12` has an RP-LC retention time of 749 s. `CCOc1ccc(N2C(=O)N[C@@H]3C[C@]2(C)Oc2ccc(OC)cc23)cc1` showed an RP-LC retention time of 864 s. For `COCc1nc(NCc2ccc3c(c2)OCO3)ncc1C(=O)O`, the RP-LC retention time was 673 s. For `CCn1cccc1-c1nc(-c2ccncc2)no1`, the RP-LC retention time was 833 s. Compound `CCc1nccn1Cc1nc(-c2ccccc2Cl)no1` has an RP-LC retention time of 640 s. `COCCNC(=O)CSc1nccc2c1ccn2Cc1ccc(F)cc1` gave an RP-LC retention time of 668 s. Compound `CCCCN(CC)CCNC(=O)c1cn2c3c(ccc(Cl)c3c1=O)OCC2` has an RP-LC retention time of 758 s. In the case of `O=C(Cn1nc2c(c1NC(=O)Cc1noc3ccccc13)CSC2)NCC1CCCO1` (stereo not given), the RP-LC retention time is reported as 853 s. Compound `CC(C)N1CCN(Cc2ccc(C(=O)N3CCN(C4CCCCC4)CC3)cc2)C(=O)C1=O` has an RP-LC retention time of 839 s. `O=C([C@@H]1C[C@H](Oc2ccccc2)CN1C(=O)COc1ccccc1)N1CCCC1` gave an RP-LC retention time of 828 s. `Cc1ccc(N2CCC(NC(=O)NC(C)(C)C)C2=O)cc1C` (stereo not given) gave an RP-LC retention time of 803 s. With `CCCN1C(=O)c2c(C(=O)NCc3ccc(Cl)cc3)ncn2CC1(C)C(=O)NCCC(C)C` (stereo not given) the RP-LC retention time was 868 s. With `Cc1cccc(CN2CCCn3nc(C(=O)NCc4cccs4)cc3C2=O)c1` the RP-LC retention time was 874 s. For `CCc1nc(-c2csc(S(=O)(=O)N3CCCC(C(=O)NC(C)C)C3)c2)no1` (stereo not given), the RP-LC retention time was 865 s. Work on `Cc1ccc(Sc2nccnc2N2CCCC(C(=O)NCc3ccccc3C)C2)cc1` (stereo not given) yielded an RP-LC retention time of 1150 s. Compound `CCCN1C(=O)COc2ccc(-c3noc(-c4cc(OC)c(OC)c(OC)c4)n3)cc21` has an RP-LC retention time of 1140 s. `CCN1CCN(c2cc(C)c3cc(NC(=O)COc4ccc(F)cc4)ccc3n2)CC1` gave an RP-LC retention time of 594 s. With `CCC(=O)Nc1ccc2c(c1)N(C(=O)c1cccs1)CCC2` the RP-LC retention time was 717 s. `CN(C)c1cc(N2CCCC(NC(=O)Cc3ccccc3)C2)ncn1` (stereo not given) gave an RP-LC retention time of 795 s. With `COc1ccc(-c2nc3cnccn3c2Nc2cccc(Cl)c2C)cc1OC` the RP-LC retention time was 890 s. With `Cc1nn(C)c(C)c1-c1cc(C(=O)O)[nH]n1` the RP-LC retention time was 574 s. `CCc1cccc(NC(=O)Cn2ccc3sccc3c2=O)c1` gave an RP-LC retention time of 800 s. With `CC(C)c1noc(C2(NC(=O)c3ccc(C(F)(F)F)cc3)CCCCC2)n1` the RP-LC retention time was 1130 s. `CC(=O)N1CCN(c2nc(-c3ccncc3)nc3c2CCC3)CC1` gave an RP-LC retention time of 576 s. `CCCCN(C)C(=O)CCC1CCCN(c2cc(NCC)ncn2)C1` (stereo not given) showed an RP-LC retention time of 658 s. For `Cc1ccc(-c2ccc(OCC(=O)NC(C)(C)C)cc2)cc1`, the RP-LC retention time was 1100 s. `Cc1ccc(-n2nc3c(N4CCCC(C(=O)NCCC5=CCCCC5)C4)nnc(C)c3c2C)cc1` (stereo not given) showed an RP-LC retention time of 865 s. Compound `CCOc1ccc(Nc2c(-c3nc(C)no3)cnc3nc(C)ccc23)cc1` has an RP-LC retention time of 778 s. `CC(C)Cn1c(=O)c(C(=O)NCc2ccc(C(F)(F)F)cc2)nc2cccnc21` showed an RP-LC retention time of 1050 s. In the case of `CCOc1cccc(-c2noc(Cc3nnc(-c4cccc(OC)c4)o3)n2)c1`, the RP-LC retention time is reported as 1080 s. `CCOC(=O)c1[nH]c(C)c(CN(Cc2ccco2)C(=O)Nc2ccc(F)cc2)c1C` showed an RP-LC retention time of 936 s. Work on `Cc1cccc(Sc2nccnc2N2CCCC(C(=O)N3CCCC3)C2)c1` (stereo not given) yielded an RP-LC retention time of 1010 s. With `O=C(Cn1ccc2ccc(N3CCCCC3)nc21)NCc1ccc(F)cc1Cl` the RP-LC retention time was 991 s. With `O=C(NCc1ccccc1)Nc1cccn2ncnc12` the RP-LC retention time was 702 s. Work on `Cc1ccc(-c2ncccc2CNS(=O)(=O)c2cccc(Cl)c2)cc1` yielded an RP-LC retention time of 766 s. In the case of `CCCCNC(=O)c1c(O)c2cccnc2n(-c2cccc(OC)c2)c1=O`, the RP-LC retention time is reported as 1140 s. Compound `O=C(NC(=O)c1ccccc1)OCCN1CCN(c2ncc(C(F)(F)F)cc2Cl)CC1` has an RP-LC retention time of 692 s. Compound `COCC(=O)N1C[C@@H]2CCCN3CCC[C@@H]([C@H]23)[C@H]1CCCC(=O)NCC1CC1` has an RP-LC retention time of 566 s. `O=C(c1cccs1)N1CCC(c2nncn2-c2ccccc2)CC1` gave an RP-LC retention time of 626 s. For `COc1cccc(C2=Nc3cccnc3N(CC(=O)NCc3ccco3)C(=O)C2)c1`, the RP-LC retention time was 809 s. In the case of `COc1cccc2c(Nc3cccc(C)c3)cc(C(=O)N3CCSCC3)nc12`, the RP-LC retention time is reported as 696 s. `CCCN(CCC)C(=O)C1CCCN(c2ccc(-c3ccc(C)cc3)nn2)C1` (stereo not given) showed an RP-LC retention time of 826 s. With `CC(C)CN1C(=O)c2cccn2CC1C(=O)NCc1ccc2c(c1)OCO2` (stereo not given) the RP-LC retention time was 676 s. With `CCN1C(=O)C2(CCN(S(=O)(=O)c3cn(C)cn3)CC2)c2ccccc21` the RP-LC retention time was 724 s. With `Cn1nc(-c2nnc(-c3ccccc3)o2)c2c1CCN(S(=O)(=O)c1cccc(C(F)(F)F)c1)C2` the RP-LC retention time was 981 s. Work on `COc1cccc(NC(=O)Cn2ncc3c(c2=O)N(CC2CC2)C(=O)CS3)c1` yielded an RP-LC retention time of 775 s. Work on `COC(=O)c1cc(OCC(=O)Nc2cc(F)ccc2F)c2cc(OC)ccc2n1` yielded an RP-LC retention time of 880 s. In the case of `Cc1nc(N2CCCCC2)cc(N2CCN(C(=O)c3ccc(Br)o3)CC2)n1`, the RP-LC retention time is reported as 689 s. `Cc1noc(C)c1CCNC(=O)CCCN1C(=O)CCn2nc(-c3cn(C)c4ccccc34)cc21` showed an RP-LC retention time of 732 s. `CC(C(=O)Nc1ccc(Cl)cc1)C1CCN(C(=O)Nc2ccccc2)CC1` (stereo not given) showed an RP-LC retention time of 910 s. Work on `COc1cccc(CNC(=O)C2(C)CCCN(C(=O)Nc3ccc(F)cc3)C2)c1` (stereo not given) yielded an RP-LC retention time of 858 s. Compound `Cc1ccc(-n2ccnc(NC(=O)Nc3cccc(F)c3)c2=O)cc1C` has an RP-LC retention time of 1070 s. In the case of `CC(C)Cc1ccc(C(C)C(=O)N2CC(=O)Nc3ccccc32)cc1` (stereo not given), the RP-LC retention time is reported as 968 s. For `O=C(CSc1cc(N2CCN(c3ccccc3F)CC2)ncn1)NCc1ccccc1`, the RP-LC retention time was 1110 s. For `COc1ccccc1N1CCN(c2cc(SCC(=O)NCc3ccc(Cl)cc3)ncn2)CC1`, the RP-LC retention time was 1110 s. For `CCOc1ccc(S(=O)(=O)N2CCC(C(=O)NCCCO)CC2)cc1C`, the RP-LC retention time was 707 s. In the case of `COCCSc1nnc(NC(=O)C2CCN(C(=O)c3ccccc3F)CC2)s1`, the RP-LC retention time is reported as 680 s. Work on `CCN1C(=O)C2(CCN(S(=O)(=O)Cc3ccc(Cl)cc3)CC2)c2ccccc21` yielded an RP-LC retention time of 1050 s.
